Assay results taken from patent US20070048358A1, “Antimicrobial substrates” (priority 2005, published 2007).

Test system: Staphylococcus aureus (ATCC #27660)
Assay: Rapid Germicidal Time Kill on treated gloves
Format: cell-based
Conditions: for log reduction of organisms: nitrile gloves, versus applied organisms estimated from latex control
Experimental: We applied an inoculum of a known amount of microbes to the antimicrobial-treated surface of a glove. After about 3-6 minutes, we assessed the number of microbes that remained on the surface of the treated glove. […] Table 2 reports the relative efficacy of killing after contact with the coated glove. The concentration of organisms on the surface is given at an initial Zero Time point and at 3, 5, and 30 minute points. […] To test the antimicrobial efficacy of a polyhexamethylene biguanide, we treated nitrile examination gloves according to ASTM protocol 04-123409-106 “Rapid Germicidal Time Kill.” In brief, about 50 μL of an overnight culture of Staphylococcus aureus (ATCC #27660, 5×10^8 CFU/mL) was applied to the glove material. After a total contact time of about 6 minutes the glove fabric was placed into a neutralizing buffer. Surviving organisms were extracted and diluted in Letheen broth. Aliquots were spread plated on Tryptic Soy Agar plates. Plates were incubated for 48 hours at 35° C. Following incubation the surviving organisms were counted and the colony forming units (CFU) were recorded. The reduction (log10) in surviving organisms from test material versus control fabric was calculated: Log10 CFU/swatch Control−Log10 CFU/swatch Test Article=Log10 Reduction.

For Polyhexamethylene biguanide (PHMB), the “log reduction of Staphylococcus aureus ATCC 27660” value (microtextured nitrile glove, machine applied at 0.03 g/glove) was “greater than four log reduction”, the “log reduction of organisms” value (hand sprayed with no heat) was “greater than one log reduction” and the “log reduction of organisms” value (machine sprayed under heated conditions) was “greater than 5 log”.
